In patent US11638709B2, “Rucaparib, Talazoparib, Veliparib, Olaparib and AZD 2461 for treating impaired skin wound healing” (AKRIBES BIOMEDICAL GMBH, priority 2017, dated 2023):
Entries after “also recorded” stand apart in the source; their conditions may differ.

Columns and labels:
[1] = tested on: primary human dermal fibroblasts (HDF); experiment: Primary human dermal fibroblast (HDF) proliferation assay (2D) with or without wound exudate; assay type: cell-based; details: for fibroblast proliferation in the absence of WE: FIG. 11, 2D fibroblast culture without WE (control); for HDF proliferation in the presence of WE #78, combined with PDGF / HDF proliferation in the presence of WE #78 / HDF proliferation in the absence of WE: FIG. 14; for HDF proliferation in the presence of WE #78, combined with PDGF: plus PDGF 20 ng/ml; for HDF proliferation in the presence of WE #78 / HDF proliferation in the absence of WE: veliparib 10 μM, talazoparib 1 μM, PDGF 20 ng/ml; for HDF proliferation in the absence of WE / effect on PDGF-induced induction of proliferation in the absence of WE: no WE; for HDF proliferation with wound exudate #78, plus PDGF / HDF proliferation with wound exudate #78: FIG. 15; for HDF proliferation with wound exudate #78, plus PDGF: compound + PDGF 20 ng/ml in medium + WE #78; for HDF proliferation with wound exudate #78: compound in medium + WE #78; for wound exudate-induced inhibition of fibroblast proliferation: FIG. 20, with wound exudate; for effect on PDGF-induced induction of proliferation in the absence of WE: with PDGF
Protocol: (§1) Primary human dermal fibroblasts (HDF) were purchased from CELLnTEC, Bern. They were routinely grown in Dulbecco's modified Eagle's medium (DMEM) containing 10% FCS, 2 mM glutamine, and 100 U/ml penicillin/100 μg/ml streptomycin. Media, antibiotics, and glutamine were bought from Lonza. The cells were used at passage 5-15. Cells were trypsinized and seeded at 5000 cells/well in 200 μl into the inner wells of 96-well plates. The outer wells were loaded with sterile water. The cells were allowed to adhere overnight and then incubated for 72 hours at 37° C. under the following conditions: graded compound concentrations or 20 ng/ml PDGF-BB (Tonbo Biosciences) in the absence or presence of different dilutions of sterile-filtered WE in medium. For control samples, 200 μl medium was added instead of specific stimuli. Alternatively, the cells were seeded into 384-well plates at 2500 cells/well directly together with test compounds or growth factors and WE or medium in a total volume of […].
At the end of the 72-hour incubation period, supernatants were removed for the determination of IL-1ß, and the cells were fixed with 4% paraformaldehyde (Morphisto) for 15 minutes at room temperature and washed 3 times with PBS. A control plate was fixed after the overnight adherence of the cells (day 1) to determine the starting cell number.
Total cellular protein was determined as a measure of cell number by staining the fixed cells with sulforhodamine B (SRB, Sigma). A 0.4% SRB solution in 1% acetic acid was added to the wells for 30 minutes. The wells were then washed with 1% acetic acid until the wash solution remained colorless. […] The average absorbance of the sample representing the day 1 starting cell number (for 96-well plates) was subtracted from the absorbance values of the WE-treated cells.
All experiments were carried out in triplicate for each sample and concentration, and means±standard deviation (SD) were used for the evaluation of the experiment. Results are expressed as percentage of control values for unstimulated cells.
Low molecular weight compounds (see list in Table 1) were dissolved in DMSO (Bioreagent for cell culture, Sigma) at 10 mM or 100 mM and diluted at least 1:1000 in medium for cellular assays (final DMSO concentration ≤0.1%).
Cells were incubated with compounds for 72 hours in proliferation assays and up to 8 days for FDM assay (refreshed after 4 days). When compounds were tested for their effect on WE stimulation, the incubation of cells with compounds was started and ended simultaneously with WE-incubation.

[2] = tested on: alpha-smooth muscle actin (α-SMA) in human dermal fibroblasts; experiment: Immunolocalization of alpha-smooth muscle actin in 2D HDF culture; assay type: cell-based; details: FIG. 16; wound exudates #91 and #55; talazoparib 0.1 μM
Protocol: as §1
After fixation with paraformaldehyde, the cells were incubated for 1 hour at room temperature with a monoclonal mouse-anti-human antibody against alpha-smooth muscle actin (α-SMA) from e-Bioscience, washed 3 times with PBS and developed with an Alexa Fluor-labelled donkey-anti-mouse IgG (Molecular Probes). […]

Structure (SMILES)	2D fibroblast culture (HDF proliferation), effect of PARP inhibitors ([1]; FIG. 8, WE from patient #78)	2D fibroblast culture (HDF proliferation), effect of PARP inhibitors ([1]; FIG. 9, WE from patient #43)	2D fibroblast culture (HDF proliferation), effect of PARP inhibitors ([1]; FIG. 10, WE from patient #78)	fibroblast proliferation in the absence of WE [1]	2D fibroblast culture, PARP inhibitor effect ± dexamethasone ± Vit. C ([1]; FIG. 12, WE from patient #78)	2D fibroblast culture, PARP inhibitor effect ± dexamethasone ± Vit. C ([1]; FIG. 13, WE from patient #43)	HDF proliferation in the presence of WE #78, combined with PDGF [1]	HDF proliferation in the presence of WE #78 [1]	HDF proliferation in the absence of WE [1]	HDF proliferation with wound exudate #78, plus PDGF [1]	HDF proliferation with wound exudate #78 [1]	wound exudate-induced inhibition of fibroblast proliferation [1]	effect on PDGF-induced induction of proliferation in the absence of WE [1]	expression of α-SMA [2]	WE-induced inhibition of fibroblast proliferation (2D HDF proliferation) ([1]; FIG. 1, wound exudate #78 (diabetic patient))	human dermal fibroblast proliferation (2D), effect of veliparib ([1]; FIG. 2, WE from patients #49, #43, #78, #27)	fibroblast 2D culture, reproducibility of effect ([1]; FIG. 3, WE samples #77 and #78 of one patient (day 1 and day 8), patient on prednisolone)
Cn1ncnc1[C@H]1c2n[nH]c(=O)c3cc(F)cc(c23)N[C@@H]1c1ccc(F)cc1 [Talazoparib]	strong and consistent positive effect	strong and consistent positive effect	strong and consistent positive effect	weak inhibitory activity; also recorded: either no effect on fibroblast proliferation in the absence of wound exudate, or only a marginal effect	strongly beneficial effects	strongly beneficial effects	additively or synergistically enhanced by PDGF	induce proliferation	no or even an inhibitory effect	even further enhanced by the addition of PDGF	dose-dependent increase of HDF proliferation	enhanced cell proliferation	either had no effect on PDGF-induced induction of proliferation or showed inhibition of the PDGF effect	able to induce expression of α-SMA	–	–	–
C[C@]1(c2nc3c(C(N)=O)cccc3[nH]2)CCCN1 [Veliparib, 2-((2R)-2-methylpyrrolidin-2-yl)-1H-benzimidazole-4-carboxamide]	strong and consistent positive effect	strong and consistent positive effect	strong and consistent positive effect	either no effect on fibroblast proliferation in the absence of wound exudate, or only a marginal effect	strongly beneficial effects	strongly beneficial effects	additively or synergistically enhanced by PDGF	induce proliferation	no or even an inhibitory effect	even further enhanced by the addition of PDGF	dose-dependent increase of HDF proliferation	enhanced cell proliferation	either had no effect on PDGF-induced induction of proliferation or showed inhibition of the PDGF effect	–	completely reversed inhibition of wound exudate (WE)-induced fibroblast proliferation	most prominent in the two patients with diabetes	reproducible in different samples of the same patient
